According to patent US20220054469A1, “FARNESOID X RECEPTOR AGONISTS AND USES THEREOF” (Metacrine, Inc., priority 2018, published 2022):

Target: T1, hFXR (Homo sapiens, UniProt Q96RI1)
T1 construct: expressed in transfected cells; host or cells: CV-1 cells
T1 sequence (Q96RI1 1-486): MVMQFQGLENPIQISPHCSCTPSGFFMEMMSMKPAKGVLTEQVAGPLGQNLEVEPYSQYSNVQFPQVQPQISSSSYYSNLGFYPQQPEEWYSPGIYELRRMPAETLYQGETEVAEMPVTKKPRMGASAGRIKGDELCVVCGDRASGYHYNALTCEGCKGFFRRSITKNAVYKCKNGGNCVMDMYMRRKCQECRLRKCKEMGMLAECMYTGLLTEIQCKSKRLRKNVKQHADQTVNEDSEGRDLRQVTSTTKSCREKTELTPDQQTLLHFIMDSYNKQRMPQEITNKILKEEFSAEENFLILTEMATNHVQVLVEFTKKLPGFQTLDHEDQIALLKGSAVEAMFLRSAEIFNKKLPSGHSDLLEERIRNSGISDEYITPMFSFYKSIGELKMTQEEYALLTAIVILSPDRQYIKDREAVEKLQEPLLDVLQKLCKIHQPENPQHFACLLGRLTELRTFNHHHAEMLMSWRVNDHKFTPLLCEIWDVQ
T1 sequence (P19793 1-462 partner): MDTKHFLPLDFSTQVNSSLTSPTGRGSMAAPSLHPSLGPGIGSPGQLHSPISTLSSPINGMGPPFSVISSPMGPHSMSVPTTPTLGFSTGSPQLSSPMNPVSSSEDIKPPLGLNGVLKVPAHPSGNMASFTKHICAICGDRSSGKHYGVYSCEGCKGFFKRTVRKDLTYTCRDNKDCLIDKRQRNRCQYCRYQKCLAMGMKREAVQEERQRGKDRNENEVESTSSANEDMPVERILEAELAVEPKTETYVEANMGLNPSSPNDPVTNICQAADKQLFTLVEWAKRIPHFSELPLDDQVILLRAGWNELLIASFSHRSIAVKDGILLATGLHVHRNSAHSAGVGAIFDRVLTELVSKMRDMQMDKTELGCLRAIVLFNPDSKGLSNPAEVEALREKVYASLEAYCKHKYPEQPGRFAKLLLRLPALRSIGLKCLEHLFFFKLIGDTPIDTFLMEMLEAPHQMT
Experiment: In Vitro FXR Assay (TK)
Format: cell-based
Conditions: CV-1 cells transfected with hFXR, hRXR, TK-ECRE-luc and pCMX-YFP; incubated with compound for 18 hrs; luminescence
Procedure, shortened: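 CV-1 cells in DMEM with 10% charcoal-stripped FBS were transiently co-transfected with hFXR, hRXR, TK-ECRE-luc reporter and pCMX-YFP plasmids over 18 h at 37 °C. Compounds serially diluted in DMSO were added for 18 h; cells were then lysed and luciferase luminescence measured.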

`COc1ccc(C23CCC(CN(c4cc(-c5cnn(C(C)C)c5)ccn4)C(=O)[C@H]4CC[C@@H](C(=O)O)CC4)(CC2)CC3)cc1C` [Compound 3.01, cis-4-((4-(1-Isopropyl-1H-pyrazol-4-yl)pyridin-2-yl)((4-(4-methoxy-3-methylphenyl)bicyclo[2.2.2]octan-1-yl)methyl)carbamoyl)cyclohexanecarboxylic acid] was tested, and the EC50 was 50 to 1000 nM.
